Source: ChEMBL document CHEMBL3885861, “Open TG-GATES”

Species on record: Rattus norvegicus
Test: Open TG-GATES - Regimen: Daily Repeat
Format: toxicity, organism-based, Sprague-Dawley
Set-up: regimen Daily Repeat, gender Male, age 6 weeks
Details: in vivo, po, 10 mg/kg, route gavage, dose level High; for KIDNEY_L / KIDNEY_R / KIDNEY_TOTAL: tissue Kidney; for LIVER: tissue Liver
[1] = 72 h, tissue Plasma, time 3 day
[2] = […], tissue Plasma, time 14 day
[3] = […], tissue Plasma, time 28 day

O=C(O)Cc1ccccc1Nc1c(Cl)cccc1Cl [DICLOFENAC]
MCH (72 h, tissue Blood, time 3 day): 22 pg | MCV (72 h, tissue Blood, time 3 day): 63.1 fL | Neu (72 h, tissue Blood, time 3 day): 22.4% | Plat (72 h, tissue Blood, time 3 day): 128.5 x10_4/uL | RBC (72 h, tissue Blood, time 3 day): 591.2 x10_4/ul | Ret (72 h, tissue Blood, time 3 day): 4.9% | WBC (72 h, tissue Blood, time 3 day): 114.7 x10_2/uL | KIDNEY_L (72 h, time 3 day): 1 g | KIDNEY_R (72 h, time 3 day): 1 g | KIDNEY_TOTAL (72 h, time 3 day): 2 g | LIVER (72 h, time 3 day): 11 g | ALP [1]: 912.8 IU/L | ALT [1]: 35.6 IU/L | AST [1]: 65.2 IU/L | CRE [1]: 0.4 mg/dL | DBIL [1]: 0.1 mg/dL | GLC [1]: 186.6 mg/dL | IP [1]: 7 mg/dL | LDH [1]: 196.8 IU/L | Na [1]: 141.6 meq/L | PL [1]: 156.8 mg/dL | RALB [1]: 3.3 g/dL | TBIL [1]: 0.2 mg/dL | TC [1]: 77.8 mg/dL | TG [1]: 107.6 mg/dL | TP [1]: 5.6 g/dL | gamma-GTP [1]: 0.4 IU/L | TERMINAL_BW ([…], time 14 day): 295.1 g | TERMINAL_BW ([…], time 28 day): 341.6 g | Bas ([…], tissue Blood, time 14 day): 0% | Eos ([…], tissue Blood, time 14 day): 1.4% | Fbg ([…], tissue Blood, time 14 day): 278.8 mg/dL | Lym ([…], tissue Blood, time 14 day): 64% | MCH ([…], tissue Blood, time 14 day): 21.5 pg | MCHC ([…], tissue Blood, time 14 day): 34% | Mono ([…], tissue Blood, time 14 day): 4.4% | Neu ([…], tissue Blood, time 14 day): 29% | Plat ([…], tissue Blood, time 14 day): 157.6 x10_4/uL | RBC ([…], tissue Blood, time 14 day): 593.2 x10_4/ul | Ret ([…], tissue Blood, time 14 day): 12% | WBC ([…], tissue Blood, time 14 day): 192.8 x10_2/uL | Bas ([…], tissue Blood, time 28 day): 0% | Eos ([…], tissue Blood, time 28 day): 1% | Fbg ([…], tissue Blood, time 28 day): 282.4 mg/dL | Lym ([…], tissue Blood, time 28 day): 61.6% | MCH ([…], tissue Blood, time 28 day): 20.3 pg | MCHC ([…], tissue Blood, time 28 day): 32.7% | Neu ([…], tissue Blood, time 28 day): 33% | Plat ([…], tissue Blood, time 28 day): 164.9 x10_4/uL | RBC ([…], tissue Blood, time 28 day): 584.4 x10_4/ul | WBC ([…], tissue Blood, time 28 day): 199.6 x10_2/uL | KIDNEY_L ([…], time 28 day): 1.3 g | KIDNEY_R ([…], time 28 day): 1.3 g | KIDNEY_TOTAL ([…], time 28 day): 2.6 g | LIVER ([…], time 14 day): 13 g | ALP [2]: 513.4 IU/L | ALT [2]: 26.4 IU/L | AST [2]: 60.4 IU/L | CRE [2]: 0.4 mg/dL | GLC [2]: 191.8 mg/dL | IP [2]: 7.6 mg/dL | K [2]: 3.9 meq/L | LDH [2]: 213 IU/L | PL [2]: 162.6 mg/dL | RALB [2]: 3 g/dL | TBIL [2]: 0.1 mg/dL | TC [2]: 78.4 mg/dL | TG [2]: 132.2 mg/dL | TP [2]: 5.4 g/dL | gamma-GTP [2]: 0.8 IU/L | ALP [3]: 538.6 IU/L | ALT [3]: 25.6 IU/L | AST [3]: 55.2 IU/L | CRE [3]: 0.4 mg/dL | Cl [3]: 104.8 meq/L | DBIL [3]: 0.07 mg/dL | GLC [3]: 191.4 mg/dL | IP [3]: 7.1 mg/dL | K [3]: 3.9 meq/L | LDH [3]: 226 IU/L | Na [3]: 140.8 meq/L | PL [3]: 146 mg/dL | RALB [3]: 2.7 g/dL | TBIL [3]: 0.1 mg/dL | TC [3]: 68.2 mg/dL | TG [3]: 123.2 mg/dL | TP [3]: 5.3 g/dL | gamma-GTP [3]: 0.8 IU/L
